Measured values: PubChem BioAssay (NCI)
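96-well plates; 48 h exposure; 5 concentrations. Endpoints by linear interpolation between flanking doses. Not reached: highest tested concentration assigned. TGI is the concentration that stops growth completely.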

The compounds below were run on XF 498 CNS (assay: growth of human tumour cells (NCI), 48 h).

| Compound | TGI [µM] |
| --- | --- |
| CCOC(=O)CCC(NC(=O)c1ccc(NCc2ccc3nc(-c4ccccc4)c(Cl)nc3c2)cc1)C(=O)OCC (configuration not stated) | 20.4 |

Each compound was assayed on ACHN renal (assay: growth of human tumour cells (NCI), 48 h).

| Compound | TGI [µM] |
| --- | --- |
| C[Si](C)(C)CN1C(=O)c2ccccc2C1(O)c1ccccc1 (configuration not stated) | > 100 |
| CC(C)(C)OC(=O)N1C2CCCC23O[C@@H]1c1cc2c(cc1C3=O)OCO2 (some centres not stated) | > 100 |
| COC(=O)c1c[nH]cc1CCCCc1c[nH]cc1C(=O)OC | > 100 |
| CCOC(=O)CCC(NC(=O)c1ccc(NCc2ccc3nc(-c4ccccc4)c(Cl)nc3c2)cc1)C(=O)OCC (configuration not stated) | > 100 |

The compounds below were run on UACC-257 melanoma (assay: growth of human tumour cells (NCI), 48 h).

| Compound | TGI [µM] |
| --- | --- |
| C[Si](C)(C)CN1C(=O)c2ccccc2C1(O)c1ccccc1 (configuration not stated) | > 100 |
| CC(C)(C)OC(=O)N1C2CCCC23O[C@@H]1c1cc2c(cc1C3=O)OCO2 (some centres not stated) | > 100 |
| COC(=O)c1c[nH]cc1CCCCc1c[nH]cc1C(=O)OC | > 100 |

Each compound was assayed on OVCAR-5 ovarian (assay: growth of human tumour cells (NCI), 48 h).

| Compound | TGI [µM] |
| --- | --- |
| C[Si](C)(C)CN1C(=O)c2ccccc2C1(O)c1ccccc1 (configuration not stated) | > 100 |
| CC(C)(C)OC(=O)N1C2CCCC23O[C@@H]1c1cc2c(cc1C3=O)OCO2 (some centres not stated) | > 100 |
| COC(=O)c1c[nH]cc1CCCCc1c[nH]cc1C(=O)OC | > 100 |
| CCOC(=O)CCC(NC(=O)c1ccc(NCc2ccc3nc(-c4ccccc4)c(Cl)nc3c2)cc1)C(=O)OCC (configuration not stated) | > 100 |

Each compound was assayed on COLO 205 colon (assay: growth of human tumour cells (NCI), 48 h).

| Compound | TGI [µM] |
| --- | --- |
| C[Si](C)(C)CN1C(=O)c2ccccc2C1(O)c1ccccc1 (configuration not stated) | > 100 |
| COC(=O)c1c[nH]cc1CCCCc1c[nH]cc1C(=O)OC | > 100 |
| CCOC(=O)CCC(NC(=O)c1ccc(NCc2ccc3nc(-c4ccccc4)c(Cl)nc3c2)cc1)C(=O)OCC (configuration not stated) | 41.7 |

The compounds below were run on SK-MEL-28 melanoma (assay: growth of human tumour cells (NCI), 48 h).

| Compound | TGI [µM] |
| --- | --- |
| C[Si](C)(C)CN1C(=O)c2ccccc2C1(O)c1ccccc1 (configuration not stated) | > 100 |
| CC(C)(C)OC(=O)N1C2CCCC23O[C@@H]1c1cc2c(cc1C3=O)OCO2 (some centres not stated) | > 100 |
| COC(=O)c1c[nH]cc1CCCCc1c[nH]cc1C(=O)OC | > 100 |

The compounds below were run on LOX IMVI melanoma (assay: growth of human tumour cells (NCI), 48 h).

| Compound | TGI [µM] |
| --- | --- |
| C[Si](C)(C)CN1C(=O)c2ccccc2C1(O)c1ccccc1 (configuration not stated) | > 100 |
| COC(=O)c1c[nH]cc1CCCCc1c[nH]cc1C(=O)OC | > 100 |
| CCOC(=O)CCC(NC(=O)c1ccc(NCc2ccc3nc(-c4ccccc4)c(Cl)nc3c2)cc1)C(=O)OCC (configuration not stated) | > 100 |

The compounds below were run on RXF 393 renal (assay: growth of human tumour cells (NCI), 48 h).

| Compound | TGI [µM] |
| --- | --- |
| C[Si](C)(C)CN1C(=O)c2ccccc2C1(O)c1ccccc1 (configuration not stated) | > 100 |
| CC(C)(C)OC(=O)N1C2CCCC23O[C@@H]1c1cc2c(cc1C3=O)OCO2 (some centres not stated) | 83.2 |
| COC(=O)c1c[nH]cc1CCCCc1c[nH]cc1C(=O)OC | > 100 |
| CCOC(=O)CCC(NC(=O)c1ccc(NCc2ccc3nc(-c4ccccc4)c(Cl)nc3c2)cc1)C(=O)OCC (configuration not stated) | > 100 |

The compounds below were run on OVCAR-3 ovarian (assay: growth of human tumour cells (NCI), 48 h).

| Compound | TGI [µM] |
| --- | --- |
| C[Si](C)(C)CN1C(=O)c2ccccc2C1(O)c1ccccc1 (configuration not stated) | > 100 |
| CC(C)(C)OC(=O)N1C2CCCC23O[C@@H]1c1cc2c(cc1C3=O)OCO2 (some centres not stated) | 40.2 |
| COC(=O)c1c[nH]cc1CCCCc1c[nH]cc1C(=O)OC | > 100 |
| CCOC(=O)CCC(NC(=O)c1ccc(NCc2ccc3nc(-c4ccccc4)c(Cl)nc3c2)cc1)C(=O)OCC (configuration not stated) | 59.2 |

The compounds below were run on K-562 leukemia (assay: growth of human tumour cells (NCI), 48 h).

| Compound | TGI [µM] |
| --- | --- |
| C[Si](C)(C)CN1C(=O)c2ccccc2C1(O)c1ccccc1 (configuration not stated) | > 100 |
| CC(C)(C)OC(=O)N1C2CCCC23O[C@@H]1c1cc2c(cc1C3=O)OCO2 (some centres not stated) | > 100 |
| COC(=O)c1c[nH]cc1CCCCc1c[nH]cc1C(=O)OC | > 100 |
| CCOC(=O)CCC(NC(=O)c1ccc(NCc2ccc3nc(-c4ccccc4)c(Cl)nc3c2)cc1)C(=O)OCC (configuration not stated) | > 100 |

What follows are compounds tested on MALME-3M melanoma (assay: growth of human tumour cells (NCI), 48 h).

| Compound | TGI [µM] |
| --- | --- |
| C[Si](C)(C)CN1C(=O)c2ccccc2C1(O)c1ccccc1 (configuration not stated) | > 100 |
| CC(C)(C)OC(=O)N1C2CCCC23O[C@@H]1c1cc2c(cc1C3=O)OCO2 (some centres not stated) | > 100 |
| COC(=O)c1c[nH]cc1CCCCc1c[nH]cc1C(=O)OC | > 100 |
| CCOC(=O)CCC(NC(=O)c1ccc(NCc2ccc3nc(-c4ccccc4)c(Cl)nc3c2)cc1)C(=O)OCC (configuration not stated) | 26 |

Each compound was assayed on SK-MEL-5 melanoma (assay: growth of human tumour cells (NCI), 48 h).

| Compound | TGI [µM] |
| --- | --- |
| C[Si](C)(C)CN1C(=O)c2ccccc2C1(O)c1ccccc1 (configuration not stated) | > 100 |
| CC(C)(C)OC(=O)N1C2CCCC23O[C@@H]1c1cc2c(cc1C3=O)OCO2 (some centres not stated) | 26.1 |
| CCOC(=O)CCC(NC(=O)c1ccc(NCc2ccc3nc(-c4ccccc4)c(Cl)nc3c2)cc1)C(=O)OCC (configuration not stated) | 23.7 |

Each compound was assayed on NCI-H226 lung (assay: growth of human tumour cells (NCI), 48 h).

| Compound | TGI [µM] |
| --- | --- |
| C[Si](C)(C)CN1C(=O)c2ccccc2C1(O)c1ccccc1 (configuration not stated) | > 100 |
| CC(C)(C)OC(=O)N1C2CCCC23O[C@@H]1c1cc2c(cc1C3=O)OCO2 (some centres not stated) | > 100 |
| COC(=O)c1c[nH]cc1CCCCc1c[nH]cc1C(=O)OC | > 100 |
| CCOC(=O)CCC(NC(=O)c1ccc(NCc2ccc3nc(-c4ccccc4)c(Cl)nc3c2)cc1)C(=O)OCC (configuration not stated) | > 100 |

Each compound was assayed on HCT-15 colon (assay: growth of human tumour cells (NCI), 48 h).

| Compound | TGI [µM] |
| --- | --- |
| C[Si](C)(C)CN1C(=O)c2ccccc2C1(O)c1ccccc1 (configuration not stated) | > 100 |
| CCOC(=O)CCC(NC(=O)c1ccc(NCc2ccc3nc(-c4ccccc4)c(Cl)nc3c2)cc1)C(=O)OCC (configuration not stated) | > 100 |

These compounds were tested on HT29 colon (assay: growth of human tumour cells (NCI), 48 h).

| Compound | TGI [µM] |
| --- | --- |
| C[Si](C)(C)CN1C(=O)c2ccccc2C1(O)c1ccccc1 (configuration not stated) | > 100 |
| CC(C)(C)OC(=O)N1C2CCCC23O[C@@H]1c1cc2c(cc1C3=O)OCO2 (some centres not stated) | > 100 |
| COC(=O)c1c[nH]cc1CCCCc1c[nH]cc1C(=O)OC | > 100 |
| CCOC(=O)CCC(NC(=O)c1ccc(NCc2ccc3nc(-c4ccccc4)c(Cl)nc3c2)cc1)C(=O)OCC (configuration not stated) | > 100 |

These compounds were tested on RPMI-8226 leukemia (assay: growth of human tumour cells (NCI), 48 h).

| Compound | TGI [µM] |
| --- | --- |
| CCOC(=O)CCC(NC(=O)c1ccc(NCc2ccc3nc(-c4ccccc4)c(Cl)nc3c2)cc1)C(=O)OCC (configuration not stated) | 81.2 |

These compounds were tested on HCT-116 colon (assay: growth of human tumour cells (NCI), 48 h).

| Compound | TGI [µM] |
| --- | --- |
| C[Si](C)(C)CN1C(=O)c2ccccc2C1(O)c1ccccc1 (configuration not stated) | > 100 |
